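Protocol summary: plate cells (96-well), add compound at 5 concentrations, incubate 48 h, interpolate endpoints linearly. Definition used: TGI = concentration required for complete inhibition of growth.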
Experiments:
Test in all cases: NCI anticancer screen, dose series, 48 h
[1] = tested on: LXFL 529 NSCLC
[2] = tested on: MOLT-4 leukemia
[3] = tested on: 786-0 renal
[4] = tested on: KM20L2 colon
[5] = tested on: HOP-92 NSCLC
[6] = tested on: ACHN renal
[7] = tested on: OVCAR-5 ovarian
[8] = tested on: NCI/ADR-RES ovarian
[9] = tested on: SF-295 CNS
[10] = tested on: SW-620 colon

| Compound | TGI [1] | TGI [2] | TGI [3] | TGI [4] | TGI [5] | TGI [6] | TGI [7] | TGI [8] | TGI [9] | TGI [10] |
| --- | --- | --- | --- | --- | --- | --- | --- | --- | --- | --- |
| COc1ccc(OC)c2c(=S)c3ccccc3[nH]c12 | > 100 µM | 98.4 µM | > 100 µM | > 100 µM | > 100 µM | > 100 µM | > 100 µM | > 100 µM | > 100 µM | > 100 µM |
| C/C(=N\N=C(N)N)C(CN(C)C)C(c1ccccc1)c1c(O)c2ccccc2oc1=O (stereo not given) | > 100 µM | > 100 µM | > 100 µM | > 100 µM | > 100 µM | > 100 µM | > 100 µM | > 100 µM | > 100 µM | > 100 µM |
| CS(=O)(=O)OCCN(CCOS(C)(=O)=O)c1ccc(C=O)cc1 | 47.4 µM | 4.84 µM | 7.86 µM | 17.8 µM | 44.5 µM | 2.69 µM | 14.4 µM | > 80.8 µM | 25.9 µM | 68.8 µM |
| Cc1c(N=Cc2ccc(N(CCC#N)CCC#N)cc2)c(=O)n(-c2ccccc2)n1C | > 100 µM | > 100 µM | 90.3 µM | > 100 µM | 99 µM | 69.1 µM | > 100 µM | > 100 µM | 71.6 µM | > 100 µM |

Reference: PubChem BioAssay (NCI)
